Measured values published in ChEMBL document CHEMBL1201862, “PubChem BioAssay data set” (2004).
Activity calls are given as the source filed them.

Assays:
Beta-galactosidase = Beta-galactosidase (Escherichia coli, UniProt Q8VNN2); assay: beta-galactosidase enzyme inhibitors and activators, dose response, artefact control for CCR6 antagonist project, biochemical, E. coli enzyme, set 3 (AID 504712); assay type: functional
[1] = target: Heat shock protein HSP 90-alpha (Homo sapiens, UniProt P07900); assay type: functional, organism-based
Fatty acid synthase [2] = target: T1, Fatty acid synthase (Homo sapiens, UniProt P49327); assay: FAS thioesterase domain inhibitors, dose response, biochemical, kinetic fluorescence intensity (AID 624326); assay type: functional;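 further: rate of fluorescence rise from hydrolysis of a fluorogenic O-methyl fluorescein ester substrate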
Fatty acid synthase [3] = target: T1, Fatty acid synthase; assay: FAS thioesterase domain inhibitors, dose response, biochemical, endpoint fluorescence intensity, uHTS hits (AID 624327); assay type: functional;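 further: fluorescence from hydrolysis of an O-methyl fluorescein acyl ester substrate by the enzyme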
[4] = cytotoxicity in HEK-293T cells, dose response, cytotoxicity control for BCR NF-kB inhibitor project, luminescence, B-cell screen hits (AID 489021); assay type: functional, cell-based;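 further: HEK-293T cells carrying an NF-kB luciferase reporter; cells exposed to compound for about 14 hours before viability readout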
[5] = inhibitors of SNCA 5'UTR-driven reporter translation, confirmation, H4 neuroglioma cells, luminescence (AID 1988); assay type: functional, cell-based
Escherichia coli [6] = assay: microbe, parasite or virus in culture
[7] = inhibitors of firefly luciferase expression or activity, dose response, H4 neuroglioma cells, luminescence (AID 1990); assay type: functional, cell-based
[8] = Luminescence Cell-Based Dose Response HTS to Identify Inhibitors of 5'UTR Stem-Loop Driven Prion Protein mRNA Translation in H4 Neuroglioblastoma Cells. [Related pubchem assays: 1827 (Project Summary), 1813 (Primary HTS)]; assay type: functional
[9] = target: T2, Ubiquitin-conjugating enzyme E2 N (Homo sapiens, UniProt P61088); assay type: functional
T2 sequence (P61088 whole entry): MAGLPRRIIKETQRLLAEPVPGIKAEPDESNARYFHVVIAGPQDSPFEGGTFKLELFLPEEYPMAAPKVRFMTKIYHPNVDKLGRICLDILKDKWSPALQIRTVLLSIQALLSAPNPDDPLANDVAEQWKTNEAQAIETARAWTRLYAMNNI

[10] = target: T2, Ubiquitin-conjugating enzyme E2 N; assay type: functional; remark: listed apart in the source
Bcl-2-related protein A1 = target: T3, Bcl-2-related protein A1 (Mus musculus, UniProt Q07440); assay type: functional;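 further: confirmatory dose–response counterscreen on Bfl-1, used to check hits from a UBC13 polyubiquitin inhibitor campaign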
T3 sequence (Q07440 whole entry): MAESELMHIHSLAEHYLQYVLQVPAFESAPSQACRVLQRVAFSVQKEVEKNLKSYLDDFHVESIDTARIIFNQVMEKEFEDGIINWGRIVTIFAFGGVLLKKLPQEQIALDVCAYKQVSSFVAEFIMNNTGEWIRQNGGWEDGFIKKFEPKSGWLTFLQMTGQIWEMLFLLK

Escherichia coli [11] = assay: microbe, parasite or virus in culture; remark: listed apart in the source
[12] = target: G-protein coupled receptor 55 (Homo sapiens, UniProt Q9Y2T6); assay: GPR55 antagonists blocking LPI-driven arrestin recruitment, primary screen, imaging, U2OS, beta-arrestin-GFP, LPI agonist (AID 2013); assay type: functional;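 further: antagonist potency measured as reduced agonist-driven arrestin aggregation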
H9c2 = assay: cells; assay type: functional, cell-based; conditions: Rattus norvegicus, H9c2, Myocardium;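 further: confirmatory concentration-response retest of ultra-high-throughput screening hits for modulation of myocardial damage; cell death induced by hydrogen peroxide oxidative stress; compound pretreatment for 60 min then peroxide exposure for 2 h; potency is for protecting the cells against peroxide damage rather than for killing them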
HEK293 = assay: cells; conditions: Homo sapiens;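 further: cells exposed to compound for 14 hours overnight before viability readout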
Tumor necrosis factor = Tumor necrosis factor (Homo sapiens, UniProt P01375); assay: TNFa-triggered NF-kB activation inhibitors, SAR follow-up, cell-based, revised (AID 2337); assay type: functional
Interleukin-8 [13] = target: T4, Interleukin-8 (Homo sapiens, UniProt P10145); assay: SAR analysis of GM-Tri-DAP induced IL-8 secretion in MCF-7/NOD1 cells - Set 2. [Related pubchem assays (depositor defined):AID1575, AID1578, AID2333]; assay type: functional, cell-based
T4 sequence (P10145 whole entry): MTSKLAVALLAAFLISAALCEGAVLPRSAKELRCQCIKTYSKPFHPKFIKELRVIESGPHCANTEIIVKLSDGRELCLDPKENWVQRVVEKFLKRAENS

Interleukin-8 [14] = target: T4, Interleukin-8; assay: SAR analysis of Tumor necrosis factor alpha (TNF-alpha) induced IL-8 secretion in MCF-7/NOD1 cells - Set 2. [Related pubchem assays (depositor defined):AID1575, AID2250, AID2260]; assay type: functional, cell-based
[15] = target: T5, Nucleotide-binding oligomerization domain-containing protein 1 (Homo sapiens, UniProt Q9Y239); assay: NOD1 signaling inhibitors, SAR follow-up, revised (AID 2333); assay type: functional
T5 sequence (Q9Y239 whole entry): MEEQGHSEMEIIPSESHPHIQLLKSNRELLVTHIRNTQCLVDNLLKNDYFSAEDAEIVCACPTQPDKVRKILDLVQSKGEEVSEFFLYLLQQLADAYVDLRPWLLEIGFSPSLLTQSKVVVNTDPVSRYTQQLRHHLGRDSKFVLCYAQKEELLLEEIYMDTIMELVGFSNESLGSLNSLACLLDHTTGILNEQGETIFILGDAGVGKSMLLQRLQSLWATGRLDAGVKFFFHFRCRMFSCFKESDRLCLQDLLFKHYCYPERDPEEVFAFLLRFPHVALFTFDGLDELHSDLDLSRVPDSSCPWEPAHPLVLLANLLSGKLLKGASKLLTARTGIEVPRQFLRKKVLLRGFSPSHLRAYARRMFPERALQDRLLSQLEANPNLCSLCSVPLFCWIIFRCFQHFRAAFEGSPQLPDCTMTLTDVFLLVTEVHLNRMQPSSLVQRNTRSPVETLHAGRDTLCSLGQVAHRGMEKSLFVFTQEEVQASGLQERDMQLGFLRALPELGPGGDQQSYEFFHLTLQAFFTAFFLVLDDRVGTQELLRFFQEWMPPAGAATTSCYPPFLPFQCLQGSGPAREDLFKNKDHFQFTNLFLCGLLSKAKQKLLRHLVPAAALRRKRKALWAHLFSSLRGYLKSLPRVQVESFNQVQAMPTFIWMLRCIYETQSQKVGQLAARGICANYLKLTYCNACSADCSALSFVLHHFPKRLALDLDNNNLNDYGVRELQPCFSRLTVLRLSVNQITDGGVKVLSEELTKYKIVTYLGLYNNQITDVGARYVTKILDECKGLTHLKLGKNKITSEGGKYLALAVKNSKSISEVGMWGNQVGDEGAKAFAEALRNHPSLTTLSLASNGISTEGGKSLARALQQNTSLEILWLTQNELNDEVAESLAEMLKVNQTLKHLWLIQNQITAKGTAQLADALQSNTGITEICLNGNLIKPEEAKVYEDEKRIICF

Hexokinase = target: T6, Hexokinase (Trypanosoma brucei, UniProt Q38C41); assay: Confirmation assay for inhibitors of Trypanosoma brucei hexokinase 1-Analogue-first series. [Related pubchem assays (depositor defined):AID1430, AID1632, AID2516, AID2560, AID2579, AID2600, AID449725, AID492951]; assay type: functional
T6 sequence (Q38C41 whole entry): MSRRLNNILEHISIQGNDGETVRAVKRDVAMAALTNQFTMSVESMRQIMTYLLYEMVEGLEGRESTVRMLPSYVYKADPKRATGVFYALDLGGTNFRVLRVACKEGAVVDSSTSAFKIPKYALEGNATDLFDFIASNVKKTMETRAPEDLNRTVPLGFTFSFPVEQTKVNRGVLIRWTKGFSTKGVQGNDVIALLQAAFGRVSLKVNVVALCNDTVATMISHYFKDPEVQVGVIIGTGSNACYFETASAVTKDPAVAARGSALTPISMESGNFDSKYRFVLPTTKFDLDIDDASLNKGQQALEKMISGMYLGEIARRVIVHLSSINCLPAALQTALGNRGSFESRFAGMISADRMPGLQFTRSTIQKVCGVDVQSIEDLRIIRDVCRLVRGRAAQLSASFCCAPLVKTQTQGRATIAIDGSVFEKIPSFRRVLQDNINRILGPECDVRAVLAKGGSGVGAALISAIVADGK

Streptokinase A = target: T7, Streptokinase A (Streptococcus pyogenes serotype M1, UniProt P10520); assay: S. pyogenes streptokinase expression inhibitors, potency, dose response, plasminogen activation absorbance, OD405 (AID 1914); assay type: functional, Streptococcus pyogenes M1 GAS;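 further: secreted streptokinase activity via plasminogen activation per viability signal from cell pellet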
T7 sequence (P10520 whole entry): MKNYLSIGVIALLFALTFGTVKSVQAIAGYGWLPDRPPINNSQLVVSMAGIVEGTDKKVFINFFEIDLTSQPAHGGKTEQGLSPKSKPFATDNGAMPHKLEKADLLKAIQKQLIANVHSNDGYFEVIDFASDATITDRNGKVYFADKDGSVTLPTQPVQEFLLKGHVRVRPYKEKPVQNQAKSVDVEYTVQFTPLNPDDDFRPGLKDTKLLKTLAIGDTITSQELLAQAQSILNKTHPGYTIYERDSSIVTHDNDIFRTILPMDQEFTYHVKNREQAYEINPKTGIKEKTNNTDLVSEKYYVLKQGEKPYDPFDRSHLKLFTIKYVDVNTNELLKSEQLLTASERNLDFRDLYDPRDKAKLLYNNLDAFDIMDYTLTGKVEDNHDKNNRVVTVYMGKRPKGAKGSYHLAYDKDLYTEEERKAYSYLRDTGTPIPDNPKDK

Streptococcus = assay: Group A Streptococcus viability loss, dose response, counter-screen for streptokinase expression inhibitor project, luminescence, BacTiterGlo (AID 1915); assay type: functional, organism-based;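 further: potency for reduction of bacterial viability or growth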
[16] = system: Streptococcus sp. 'group A'; assay: growth inhibition of control SK(-) GAS strain, dose response, counter-screen for streptokinase expression inhibitor project, luminescence, kanamycin, BacTiterGlo, confirmation (AID 1900); assay type: functional, organism-based
[17] = target: Alkaline phosphatase, placental type (Homo sapiens, UniProt P05187); assay: PLAP enzyme inhibitors, confirmation, biochemical, luminescence (AID 1512); assay type: functional
[18] = target: Glyceraldehyde-3-phosphate dehydrogenase (Homo sapiens, UniProt P04406)
Glyceraldehyde-3-phosphate dehydrogenase, sequence (P04406 whole entry): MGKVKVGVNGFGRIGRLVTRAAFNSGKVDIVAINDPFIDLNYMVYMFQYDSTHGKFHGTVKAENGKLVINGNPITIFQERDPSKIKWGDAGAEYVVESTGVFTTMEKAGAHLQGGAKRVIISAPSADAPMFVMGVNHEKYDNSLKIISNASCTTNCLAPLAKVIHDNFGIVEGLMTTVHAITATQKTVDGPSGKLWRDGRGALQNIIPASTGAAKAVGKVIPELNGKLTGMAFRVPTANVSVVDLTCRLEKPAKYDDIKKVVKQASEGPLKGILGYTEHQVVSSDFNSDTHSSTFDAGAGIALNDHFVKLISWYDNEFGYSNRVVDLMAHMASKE

Beta-galactosidase, sequence (Q8VNN2 whole entry): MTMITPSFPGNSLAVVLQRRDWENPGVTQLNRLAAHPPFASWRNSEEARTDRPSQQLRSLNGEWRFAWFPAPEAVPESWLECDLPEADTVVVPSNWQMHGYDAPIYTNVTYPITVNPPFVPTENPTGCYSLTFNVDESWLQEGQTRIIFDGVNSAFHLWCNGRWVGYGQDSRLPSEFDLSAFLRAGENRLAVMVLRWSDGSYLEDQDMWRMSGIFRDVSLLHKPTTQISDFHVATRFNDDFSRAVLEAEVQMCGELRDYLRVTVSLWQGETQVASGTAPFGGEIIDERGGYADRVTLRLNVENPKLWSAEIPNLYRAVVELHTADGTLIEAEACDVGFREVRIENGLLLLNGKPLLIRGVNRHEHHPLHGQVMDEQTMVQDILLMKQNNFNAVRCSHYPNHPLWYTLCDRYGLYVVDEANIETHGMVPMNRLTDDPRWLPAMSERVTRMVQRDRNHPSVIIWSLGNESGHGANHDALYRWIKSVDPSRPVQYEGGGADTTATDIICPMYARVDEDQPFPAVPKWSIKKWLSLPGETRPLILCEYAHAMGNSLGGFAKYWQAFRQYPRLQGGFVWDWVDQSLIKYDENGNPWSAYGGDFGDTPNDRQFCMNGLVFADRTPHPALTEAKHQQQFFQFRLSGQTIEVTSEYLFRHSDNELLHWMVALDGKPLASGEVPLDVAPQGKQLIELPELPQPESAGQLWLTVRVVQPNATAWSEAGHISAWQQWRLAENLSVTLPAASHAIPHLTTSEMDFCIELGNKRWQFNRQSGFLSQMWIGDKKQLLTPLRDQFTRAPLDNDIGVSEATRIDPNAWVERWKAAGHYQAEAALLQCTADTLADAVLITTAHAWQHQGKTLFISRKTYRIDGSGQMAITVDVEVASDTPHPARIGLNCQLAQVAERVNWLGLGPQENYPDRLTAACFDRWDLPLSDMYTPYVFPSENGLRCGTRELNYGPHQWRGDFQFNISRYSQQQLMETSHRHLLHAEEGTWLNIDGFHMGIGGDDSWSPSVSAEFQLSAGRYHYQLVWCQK
G-protein coupled receptor 55, sequence (Q9Y2T6 whole entry): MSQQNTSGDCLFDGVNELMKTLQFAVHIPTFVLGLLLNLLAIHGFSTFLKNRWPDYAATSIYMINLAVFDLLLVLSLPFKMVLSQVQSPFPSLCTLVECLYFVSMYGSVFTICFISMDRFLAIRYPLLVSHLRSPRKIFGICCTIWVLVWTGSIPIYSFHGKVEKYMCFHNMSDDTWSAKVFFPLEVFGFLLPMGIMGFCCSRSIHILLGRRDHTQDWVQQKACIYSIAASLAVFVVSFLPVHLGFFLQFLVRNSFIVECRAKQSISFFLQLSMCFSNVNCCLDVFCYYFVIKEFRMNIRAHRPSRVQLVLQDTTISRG
T1 sequence (P49327 whole entry, the tested form may be a part): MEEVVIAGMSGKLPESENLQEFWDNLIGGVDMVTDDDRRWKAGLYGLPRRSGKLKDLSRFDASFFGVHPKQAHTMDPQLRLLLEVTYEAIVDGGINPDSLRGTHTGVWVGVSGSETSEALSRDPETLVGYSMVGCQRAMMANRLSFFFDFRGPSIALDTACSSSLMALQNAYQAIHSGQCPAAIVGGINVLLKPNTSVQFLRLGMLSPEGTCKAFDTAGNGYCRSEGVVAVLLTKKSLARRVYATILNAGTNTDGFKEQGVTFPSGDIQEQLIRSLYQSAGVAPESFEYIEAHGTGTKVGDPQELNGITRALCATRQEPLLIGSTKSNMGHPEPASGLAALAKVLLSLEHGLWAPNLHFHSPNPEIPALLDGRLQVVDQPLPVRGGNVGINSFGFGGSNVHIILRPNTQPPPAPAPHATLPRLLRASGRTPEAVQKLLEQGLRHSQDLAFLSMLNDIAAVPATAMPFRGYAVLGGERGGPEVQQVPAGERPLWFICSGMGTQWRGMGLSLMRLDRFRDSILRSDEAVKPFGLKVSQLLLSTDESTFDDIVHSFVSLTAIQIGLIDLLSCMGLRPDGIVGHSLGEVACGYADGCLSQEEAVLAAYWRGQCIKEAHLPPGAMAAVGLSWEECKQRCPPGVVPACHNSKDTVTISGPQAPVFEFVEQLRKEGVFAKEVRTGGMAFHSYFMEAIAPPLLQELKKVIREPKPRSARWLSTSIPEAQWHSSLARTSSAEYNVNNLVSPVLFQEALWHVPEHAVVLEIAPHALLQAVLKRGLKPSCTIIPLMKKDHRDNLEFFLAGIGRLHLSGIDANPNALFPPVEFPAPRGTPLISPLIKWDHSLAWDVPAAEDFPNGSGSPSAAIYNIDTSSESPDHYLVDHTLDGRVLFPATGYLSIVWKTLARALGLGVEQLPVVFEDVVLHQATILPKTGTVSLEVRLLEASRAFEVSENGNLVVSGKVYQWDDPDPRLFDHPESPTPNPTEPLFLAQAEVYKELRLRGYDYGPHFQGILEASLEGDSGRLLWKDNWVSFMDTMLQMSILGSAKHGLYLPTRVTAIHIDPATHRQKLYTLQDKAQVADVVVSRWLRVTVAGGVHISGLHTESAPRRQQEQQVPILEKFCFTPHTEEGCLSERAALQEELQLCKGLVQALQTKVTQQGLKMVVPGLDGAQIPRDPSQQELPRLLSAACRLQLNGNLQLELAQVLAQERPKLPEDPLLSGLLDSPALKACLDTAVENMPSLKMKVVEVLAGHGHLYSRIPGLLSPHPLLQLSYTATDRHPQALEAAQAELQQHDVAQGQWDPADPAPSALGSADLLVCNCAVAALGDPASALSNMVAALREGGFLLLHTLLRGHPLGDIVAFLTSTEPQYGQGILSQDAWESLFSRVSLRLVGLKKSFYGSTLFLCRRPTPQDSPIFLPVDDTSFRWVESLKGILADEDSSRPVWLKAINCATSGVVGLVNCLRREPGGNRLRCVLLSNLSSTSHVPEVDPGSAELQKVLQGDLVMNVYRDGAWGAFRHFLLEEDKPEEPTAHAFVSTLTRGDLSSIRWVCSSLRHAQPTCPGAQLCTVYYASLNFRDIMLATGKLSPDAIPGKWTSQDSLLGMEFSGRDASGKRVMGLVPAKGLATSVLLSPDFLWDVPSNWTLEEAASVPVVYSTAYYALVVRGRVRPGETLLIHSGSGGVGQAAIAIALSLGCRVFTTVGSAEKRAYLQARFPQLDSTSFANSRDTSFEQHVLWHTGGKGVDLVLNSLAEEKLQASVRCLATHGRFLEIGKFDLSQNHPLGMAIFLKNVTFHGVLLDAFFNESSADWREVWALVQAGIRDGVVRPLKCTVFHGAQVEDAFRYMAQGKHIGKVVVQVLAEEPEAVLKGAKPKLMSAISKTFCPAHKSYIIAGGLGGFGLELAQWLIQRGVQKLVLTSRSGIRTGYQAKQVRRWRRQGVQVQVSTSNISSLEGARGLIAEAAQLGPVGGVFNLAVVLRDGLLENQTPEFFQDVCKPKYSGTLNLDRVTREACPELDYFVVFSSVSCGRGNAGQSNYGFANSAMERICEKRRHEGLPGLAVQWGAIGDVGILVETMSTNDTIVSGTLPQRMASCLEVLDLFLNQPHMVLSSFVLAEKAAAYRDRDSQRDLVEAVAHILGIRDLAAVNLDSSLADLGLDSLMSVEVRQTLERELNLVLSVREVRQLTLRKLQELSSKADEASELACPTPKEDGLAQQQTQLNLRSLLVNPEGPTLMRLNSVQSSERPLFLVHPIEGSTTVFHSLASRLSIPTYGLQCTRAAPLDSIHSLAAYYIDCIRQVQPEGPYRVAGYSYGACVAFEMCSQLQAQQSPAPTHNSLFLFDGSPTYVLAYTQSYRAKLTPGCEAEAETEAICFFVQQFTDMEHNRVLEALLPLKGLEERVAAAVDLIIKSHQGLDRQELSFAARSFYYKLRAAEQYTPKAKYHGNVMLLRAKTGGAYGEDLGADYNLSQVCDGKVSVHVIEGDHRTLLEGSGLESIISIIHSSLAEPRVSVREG
Tumor necrosis factor, sequence (P01375 whole entry): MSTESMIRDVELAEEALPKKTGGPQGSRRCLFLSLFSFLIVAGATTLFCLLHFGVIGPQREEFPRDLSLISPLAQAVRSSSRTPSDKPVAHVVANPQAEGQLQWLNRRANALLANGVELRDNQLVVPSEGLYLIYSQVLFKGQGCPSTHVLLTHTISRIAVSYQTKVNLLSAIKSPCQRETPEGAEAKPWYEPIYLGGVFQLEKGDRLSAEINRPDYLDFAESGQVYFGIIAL
Alkaline phosphatase, placental type, sequence (P05187 whole entry): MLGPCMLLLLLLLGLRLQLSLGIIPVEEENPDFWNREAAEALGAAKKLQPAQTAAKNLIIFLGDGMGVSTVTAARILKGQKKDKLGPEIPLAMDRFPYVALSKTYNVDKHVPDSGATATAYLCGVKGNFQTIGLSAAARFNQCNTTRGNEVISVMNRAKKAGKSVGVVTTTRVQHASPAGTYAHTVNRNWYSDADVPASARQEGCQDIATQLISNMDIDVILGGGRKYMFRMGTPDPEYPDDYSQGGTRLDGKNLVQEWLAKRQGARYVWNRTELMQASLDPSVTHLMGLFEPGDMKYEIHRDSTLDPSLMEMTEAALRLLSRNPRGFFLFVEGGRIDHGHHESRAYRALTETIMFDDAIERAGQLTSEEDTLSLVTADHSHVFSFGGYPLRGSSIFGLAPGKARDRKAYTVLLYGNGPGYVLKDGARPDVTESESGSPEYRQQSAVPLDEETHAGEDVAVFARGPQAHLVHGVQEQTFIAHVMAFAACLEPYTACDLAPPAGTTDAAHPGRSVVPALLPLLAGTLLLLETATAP

For `N#C/C(=C\c1cccc([N+](=O)[O-])c1)C(=O)NCc1ccc(Cl)cc1`, the IC50 (Beta-galactosidase) was > 66.6 µM (inactive), the AC50 [1] was 1.93 µM (active) and the IC50 (Fatty acid synthase [2]) was 4.11 µM (active). The IC50 (Fatty acid synthase [3]) was 4.48 µM (active).
In the case of `COc1ccc(N(CC(=O)N2CCN(c3ccc(Cl)cc3)CC2)S(=O)(=O)c2c(C)n[nH]c2C)cc1`, the IC50 [4] is reported as > 80 µM (inactive).
For `Cc1ccnc(SCCn2c(N3CC(C)CC(C)C3)nc3c2c(=O)n(C)c(=O)n3C)n1` (stereo not drawn), the EC50 [5] was > 120 µM (not active), the AC50 (Escherichia coli [6]) was 35.1 µM (active) and the EC50 [7] was 39.1 µM (active). For the same compound, the EC50 [8] was > 120 µM (not active).
For `O=[N+]([O-])c1ccc2[nH]c(O)c(N=NC(S)=NCC3CCCO3)c2c1` (stereo not drawn), the IC50 [9] was 0.664 µM (active), the IC50 [10] was 15.9 µM (active) and the IC50 (Bcl-2-related protein A1) was > 20 µM (inactive).
With `O=C1CC(c2cc(-c3ccccc3)no2)C1` the AC50 (Escherichia coli [11]) was 34.5 µM (active).
With `O=C(c1cccc(Oc2ccc([N+](=O)[O-])cc2Cl)c1)N1CCCCC1` the IC50 [12] was 5.09 µM (active).
With `COc1ccc(S(=O)(=O)N2CCCCCC2)cc1NC(=O)c1c2c(nc3ccccc13)CCN(Cc1ccccc1)C2` the AC50 (Escherichia coli [6]) was 52 µM (active) and the AC50 (Escherichia coli [11]) was 26 µM (active).
In the case of `Cc1nn(-c2nc3ccccc3[nH]2)c(N)c1-c1ccccc1`, the IC50 (Beta-galactosidase) is reported as > 66.6 µM (inactive).
In the case of `CC(C)(C)c1cc(NS(=O)(=O)c2ccc3c(c2)OCCO3)on1`, the AC50 (Escherichia coli [6]) is reported as 31 µM (active).
With `Cc1ccc(S(=O)(=O)n2cc(C=O)c3ccccc32)cc1` the IC50 [9] was 11 µM (active), the IC50 [10] was 9.59 µM (active) and the IC50 (Bcl-2-related protein A1) was > 20 µM (inactive).
In the case of `COc1cc(NC(=O)c2ccco2)c(OC)cc1NC(=O)c1cc(OC)c(OC)c(OC)c1`, the IC50 [4] is reported as 41.3 µM (inactive) and the IC50 (H9c2) is reported as 14.3 µM (active).
With `Cc1ccc(S(=O)(=O)n2c(=S)[nH]c3cc(C)ccc32)cc1` the IC50 (HEK293) was > 20 µM (inactive), the IC50 (Tumor necrosis factor) was > 20 µM (inactive) and the IC50 (Interleukin-8 [13]) was > 25 µM (inactive). For the same compound, the IC50 (Interleukin-8 [14]) was > 25 µM (inactive) and the IC50 [15] was > 20 µM (inactive).
With `Fc1ccc(CSc2ncnc3scc(-c4ccccc4)c23)cc1` the IC50 [12] was 2.16 µM (active).
With `Cc1csc(NC(=O)/C=C/c2ccc3c(c2)OCO3)n1` the IC50 [4] was > 80 µM (inactive).
With `O=C(Cn1sc2ccccc2c1=O)Nc1cccc(Br)c1` the IC50 (Hexokinase) was > 25 µM (inactive).
With `O=C(Cn1sc2ccccc2c1=O)Nc1ccccc1Cl` the IC50 (Hexokinase) was 4.16 µM (active).
With `COc1ccc(NC(=O)Nc2ccccc2C(=O)O)cc1` the IC50 (Hexokinase) was > 25 µM (inactive).
In the case of `NC(=O)c1ncn([C@@H]2O[C@H](CNCc3cccn3-c3ccncc3)[C@@H](O)[C@H]2O)n1`, the AC50 (Escherichia coli [11]) is reported as 24 µM (active).
With `CC1=CC(C)(C)n2c(O)c(/N=N/C(=N)S)c3cccc1c32` the IC50 [9] was 4.79 µM (active), the IC50 [10] was 6.09 µM (active) and the IC50 (Bcl-2-related protein A1) was > 20 µM (inactive).
With `Cc1cccc(/C=N/NC(=O)c2ccccc2OCc2cccc(Br)c2)n1` the EC50 (Streptokinase A) was 16.1 µM (active), the EC50 (Streptococcus) was 21.5 µM (active) and the IC50 (Beta-galactosidase) was > 66.6 µM (inactive). For the same compound, the EC50 [16] was 11 µM (active).
In the case of `CCN1CCN(C(=O)c2cc(-c3ccc(Cl)cc3Cl)n[nH]2)CC1`, the IC50 [17] is reported as > 100 µM (inactive) and the IC50 [18] is reported as > 100 µM (not active).
